Measured values reported in ChEMBL document CHEMBL1201862, “PubChem BioAssay data set” (2004).
Calls of active or inactive are those of the source.

How the values were obtained:
Fatty acid synthase [1] = target: T1, Fatty acid synthase (Homo sapiens, UniProt P49327); assay: inhibition of human FAS-TE enzyme activity – biochemical, kinetic fluorescence intensity, dose response (AID 624326); type: functional;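 further: rate of fluorescence rise from hydrolysis of a fluorogenic O-methyl fluorescein ester substrate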
Fatty acid synthase [2] = target: T1, Fatty acid synthase; assay: inhibition of human FAS-TE enzyme activity – biochemical, endpoint fluorescence intensity, uHTS hits, dose response (AID 624327); type: functional;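 further: fluorescence from hydrolysis of an O-methyl fluorescein acyl ester substrate by the enzyme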
[3] = target: T2, Ubiquitin-conjugating enzyme E2 N (Homo sapiens, UniProt P61088); type: functional;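 further: Dose-response confirmation in a TR-FRET assay detecting UBC13-driven polyubiquitin chain formation, inhibition measured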
T2 sequence (P61088 whole entry): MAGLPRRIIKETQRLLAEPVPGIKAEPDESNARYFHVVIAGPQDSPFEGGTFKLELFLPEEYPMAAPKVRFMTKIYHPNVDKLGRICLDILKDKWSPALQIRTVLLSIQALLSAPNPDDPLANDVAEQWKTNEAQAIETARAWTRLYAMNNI

Protein RecA = target: T3, Protein RecA (Mycobacterium tuberculosis, UniProt P9WHJ3); assay: Fluorescence Cell-Free Homogeneous Dose Retest to Identify Inhibitors of RecA-Intein Splicing Activity. [Related pubchem assays (depositor defined):AID2097, AID2223, AID489010, AID492950]; type: functional
T3 sequence (P9WHJ3 whole entry): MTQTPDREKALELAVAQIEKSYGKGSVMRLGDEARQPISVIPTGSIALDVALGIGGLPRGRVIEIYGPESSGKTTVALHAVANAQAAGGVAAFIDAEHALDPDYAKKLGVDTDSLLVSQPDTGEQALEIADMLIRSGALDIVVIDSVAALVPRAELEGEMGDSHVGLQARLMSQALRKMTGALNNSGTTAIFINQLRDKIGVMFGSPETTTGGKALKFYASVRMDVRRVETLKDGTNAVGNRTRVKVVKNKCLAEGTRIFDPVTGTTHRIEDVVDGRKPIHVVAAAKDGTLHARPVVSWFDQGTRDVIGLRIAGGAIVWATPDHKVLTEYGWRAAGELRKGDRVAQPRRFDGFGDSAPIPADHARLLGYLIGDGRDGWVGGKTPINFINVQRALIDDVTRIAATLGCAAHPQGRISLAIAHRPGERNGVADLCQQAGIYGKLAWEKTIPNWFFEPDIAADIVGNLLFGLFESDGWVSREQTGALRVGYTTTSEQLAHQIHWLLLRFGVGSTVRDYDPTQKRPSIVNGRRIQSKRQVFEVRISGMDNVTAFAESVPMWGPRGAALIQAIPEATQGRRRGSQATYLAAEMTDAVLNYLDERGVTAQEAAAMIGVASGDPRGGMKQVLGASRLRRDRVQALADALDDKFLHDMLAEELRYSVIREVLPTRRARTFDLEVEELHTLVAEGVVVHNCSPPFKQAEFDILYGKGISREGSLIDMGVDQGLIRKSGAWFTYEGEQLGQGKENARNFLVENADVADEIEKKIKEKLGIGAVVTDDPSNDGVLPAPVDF

cells = type: functional
[4] = target: T4, Replicative DNA helicase DnaB (Mycobacterium tuberculosis, UniProt P9WMR3); assay: DnaB intein splicing inhibitors, dose response, biochemical, cell-free fluorescence (AID 449749); type: functional
T4 sequence (P9WMR3 whole entry): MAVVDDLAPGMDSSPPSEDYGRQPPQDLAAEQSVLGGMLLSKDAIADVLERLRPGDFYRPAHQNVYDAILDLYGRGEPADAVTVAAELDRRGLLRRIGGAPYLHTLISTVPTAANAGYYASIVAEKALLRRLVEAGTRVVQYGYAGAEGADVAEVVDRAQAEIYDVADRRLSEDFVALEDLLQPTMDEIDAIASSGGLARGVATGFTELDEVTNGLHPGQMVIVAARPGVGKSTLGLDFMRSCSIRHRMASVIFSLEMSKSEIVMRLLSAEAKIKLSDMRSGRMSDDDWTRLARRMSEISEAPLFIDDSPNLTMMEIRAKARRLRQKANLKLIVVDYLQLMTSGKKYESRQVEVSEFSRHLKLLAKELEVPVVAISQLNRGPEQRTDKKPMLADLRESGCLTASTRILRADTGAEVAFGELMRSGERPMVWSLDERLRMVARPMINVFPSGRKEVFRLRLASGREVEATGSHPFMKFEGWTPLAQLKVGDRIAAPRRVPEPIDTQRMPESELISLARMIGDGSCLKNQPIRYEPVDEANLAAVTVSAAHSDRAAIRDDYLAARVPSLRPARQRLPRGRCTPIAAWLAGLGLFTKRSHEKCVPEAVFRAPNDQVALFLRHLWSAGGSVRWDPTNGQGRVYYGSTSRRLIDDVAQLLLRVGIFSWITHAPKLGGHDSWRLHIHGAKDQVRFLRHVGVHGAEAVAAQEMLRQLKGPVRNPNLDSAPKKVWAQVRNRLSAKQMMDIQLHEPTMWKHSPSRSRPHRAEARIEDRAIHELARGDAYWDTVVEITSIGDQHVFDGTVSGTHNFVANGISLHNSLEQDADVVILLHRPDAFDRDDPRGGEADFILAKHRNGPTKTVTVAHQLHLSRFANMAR

[5] = fluconazole-exposed Candida albicans growth modulators – fluorescence, retest, confirmation (AID 2467); type: functional, cell-based
[6] = NIH-3T3 fibroblast cytotoxicity, dose response, cytotoxicity control, cell-based, fluorescence, Alamar Blue, secondary assay (AID 2327); type: functional;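 further: NIH-3T3 mouse fibroblasts cultured with fluconazole at 8 µg/mL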
[7] = target: Heat shock protein HSP 90-alpha (Homo sapiens, UniProt P07900); type: functional, organism-based
[8] = Luminescence Cell-Based Dose Retest to Confirm Inhibitors of Cancer Stem Cells. [Related pubchem assays (depositor defined):AID2717, AID2721]; type: functional; conditions: Homo sapiens
H9c2 = assay: cells; type: functional, cell-based; conditions: Rattus norvegicus, H9c2, Myocardium;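 further: confirmatory concentration-response retest of ultra-high-throughput screening hits for modulation of myocardial damage; cell death induced by hydrogen peroxide oxidative stress; compound pretreatment for 60 min then peroxide exposure for 2 h; potency is for protecting the cells against peroxide damage rather than for killing them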
[9] = target: T5, RNA-binding protein pos-1 (Caenorhabditis elegans, UniProt G5EF15); assay: disruptors of C. elegans POS-1 RNA interaction – biochemical, fluorescence polarization, dose response (AID 1964);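 further: purified POS-1 fused to maltose binding protein made in E. coli; potency of compounds blocking POS-1 binding to fluorescent RNA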
T5 sequence (G5EF15 whole entry): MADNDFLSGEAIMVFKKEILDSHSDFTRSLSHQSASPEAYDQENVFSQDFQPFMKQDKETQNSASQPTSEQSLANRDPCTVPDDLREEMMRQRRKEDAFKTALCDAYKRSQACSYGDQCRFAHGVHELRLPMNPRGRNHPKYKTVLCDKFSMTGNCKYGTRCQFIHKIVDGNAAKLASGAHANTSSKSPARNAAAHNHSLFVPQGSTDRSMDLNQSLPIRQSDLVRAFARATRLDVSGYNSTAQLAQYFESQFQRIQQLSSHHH

[10] = target: T6, Zinc finger protein mex-5 (Caenorhabditis elegans, UniProt Q9XUB2); assay: potency of MEX-5 RNA-binding blockers – biochemical, C. elegans, fluorescence polarization, dose response (AID 1960)
T6 sequence (Q9XUB2 whole entry): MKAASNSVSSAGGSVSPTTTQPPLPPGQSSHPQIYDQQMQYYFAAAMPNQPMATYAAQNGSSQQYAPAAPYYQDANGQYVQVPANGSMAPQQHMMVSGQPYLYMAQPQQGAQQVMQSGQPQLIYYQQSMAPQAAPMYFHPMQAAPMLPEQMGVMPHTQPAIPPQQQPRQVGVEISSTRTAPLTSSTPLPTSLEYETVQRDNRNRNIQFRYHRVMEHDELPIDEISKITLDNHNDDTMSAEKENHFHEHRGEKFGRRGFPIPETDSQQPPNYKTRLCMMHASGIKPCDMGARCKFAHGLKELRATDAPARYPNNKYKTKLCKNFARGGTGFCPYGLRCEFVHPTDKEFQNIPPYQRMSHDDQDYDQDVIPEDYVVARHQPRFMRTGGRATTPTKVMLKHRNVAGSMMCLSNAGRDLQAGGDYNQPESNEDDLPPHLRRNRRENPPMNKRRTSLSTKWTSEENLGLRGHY

Vero = assay: cells; type: functional; conditions: Chlorocebus sabaeus
[11] = Luminescence Cell-Based Dose Response HTS to Identify Activators of Luciferase Translation or Activity in H4 […] Cells. [Related pubchem assays: 1829 (Project Summary), 1814 (Primary HTS)]; type: functional
[12] = Luminescence Cell-Based Dose Confirmation HTS to Identify Activators of 5'UTR Stem-Loop Driven Alpha-Synuclein mRNA Translation in H4 Neuroglioblastoma Cells. [Related pubchem assays: 1829 (Project Summary), 1814 (Primary HTS)]; type: functional
H4 = assay: Luminescence Cell-Based Dose Response HTS to Identify Activators of 5'UTR Stem-Loop Driven Prion Protein mRNA Translation in H4 Neuroglioblastoma Cells. [Related pubchem assays: 1829 (Project Summary), 1814 (Primary HTS)]; type: functional; conditions: Homo sapiens

T1 sequence (P49327 whole entry): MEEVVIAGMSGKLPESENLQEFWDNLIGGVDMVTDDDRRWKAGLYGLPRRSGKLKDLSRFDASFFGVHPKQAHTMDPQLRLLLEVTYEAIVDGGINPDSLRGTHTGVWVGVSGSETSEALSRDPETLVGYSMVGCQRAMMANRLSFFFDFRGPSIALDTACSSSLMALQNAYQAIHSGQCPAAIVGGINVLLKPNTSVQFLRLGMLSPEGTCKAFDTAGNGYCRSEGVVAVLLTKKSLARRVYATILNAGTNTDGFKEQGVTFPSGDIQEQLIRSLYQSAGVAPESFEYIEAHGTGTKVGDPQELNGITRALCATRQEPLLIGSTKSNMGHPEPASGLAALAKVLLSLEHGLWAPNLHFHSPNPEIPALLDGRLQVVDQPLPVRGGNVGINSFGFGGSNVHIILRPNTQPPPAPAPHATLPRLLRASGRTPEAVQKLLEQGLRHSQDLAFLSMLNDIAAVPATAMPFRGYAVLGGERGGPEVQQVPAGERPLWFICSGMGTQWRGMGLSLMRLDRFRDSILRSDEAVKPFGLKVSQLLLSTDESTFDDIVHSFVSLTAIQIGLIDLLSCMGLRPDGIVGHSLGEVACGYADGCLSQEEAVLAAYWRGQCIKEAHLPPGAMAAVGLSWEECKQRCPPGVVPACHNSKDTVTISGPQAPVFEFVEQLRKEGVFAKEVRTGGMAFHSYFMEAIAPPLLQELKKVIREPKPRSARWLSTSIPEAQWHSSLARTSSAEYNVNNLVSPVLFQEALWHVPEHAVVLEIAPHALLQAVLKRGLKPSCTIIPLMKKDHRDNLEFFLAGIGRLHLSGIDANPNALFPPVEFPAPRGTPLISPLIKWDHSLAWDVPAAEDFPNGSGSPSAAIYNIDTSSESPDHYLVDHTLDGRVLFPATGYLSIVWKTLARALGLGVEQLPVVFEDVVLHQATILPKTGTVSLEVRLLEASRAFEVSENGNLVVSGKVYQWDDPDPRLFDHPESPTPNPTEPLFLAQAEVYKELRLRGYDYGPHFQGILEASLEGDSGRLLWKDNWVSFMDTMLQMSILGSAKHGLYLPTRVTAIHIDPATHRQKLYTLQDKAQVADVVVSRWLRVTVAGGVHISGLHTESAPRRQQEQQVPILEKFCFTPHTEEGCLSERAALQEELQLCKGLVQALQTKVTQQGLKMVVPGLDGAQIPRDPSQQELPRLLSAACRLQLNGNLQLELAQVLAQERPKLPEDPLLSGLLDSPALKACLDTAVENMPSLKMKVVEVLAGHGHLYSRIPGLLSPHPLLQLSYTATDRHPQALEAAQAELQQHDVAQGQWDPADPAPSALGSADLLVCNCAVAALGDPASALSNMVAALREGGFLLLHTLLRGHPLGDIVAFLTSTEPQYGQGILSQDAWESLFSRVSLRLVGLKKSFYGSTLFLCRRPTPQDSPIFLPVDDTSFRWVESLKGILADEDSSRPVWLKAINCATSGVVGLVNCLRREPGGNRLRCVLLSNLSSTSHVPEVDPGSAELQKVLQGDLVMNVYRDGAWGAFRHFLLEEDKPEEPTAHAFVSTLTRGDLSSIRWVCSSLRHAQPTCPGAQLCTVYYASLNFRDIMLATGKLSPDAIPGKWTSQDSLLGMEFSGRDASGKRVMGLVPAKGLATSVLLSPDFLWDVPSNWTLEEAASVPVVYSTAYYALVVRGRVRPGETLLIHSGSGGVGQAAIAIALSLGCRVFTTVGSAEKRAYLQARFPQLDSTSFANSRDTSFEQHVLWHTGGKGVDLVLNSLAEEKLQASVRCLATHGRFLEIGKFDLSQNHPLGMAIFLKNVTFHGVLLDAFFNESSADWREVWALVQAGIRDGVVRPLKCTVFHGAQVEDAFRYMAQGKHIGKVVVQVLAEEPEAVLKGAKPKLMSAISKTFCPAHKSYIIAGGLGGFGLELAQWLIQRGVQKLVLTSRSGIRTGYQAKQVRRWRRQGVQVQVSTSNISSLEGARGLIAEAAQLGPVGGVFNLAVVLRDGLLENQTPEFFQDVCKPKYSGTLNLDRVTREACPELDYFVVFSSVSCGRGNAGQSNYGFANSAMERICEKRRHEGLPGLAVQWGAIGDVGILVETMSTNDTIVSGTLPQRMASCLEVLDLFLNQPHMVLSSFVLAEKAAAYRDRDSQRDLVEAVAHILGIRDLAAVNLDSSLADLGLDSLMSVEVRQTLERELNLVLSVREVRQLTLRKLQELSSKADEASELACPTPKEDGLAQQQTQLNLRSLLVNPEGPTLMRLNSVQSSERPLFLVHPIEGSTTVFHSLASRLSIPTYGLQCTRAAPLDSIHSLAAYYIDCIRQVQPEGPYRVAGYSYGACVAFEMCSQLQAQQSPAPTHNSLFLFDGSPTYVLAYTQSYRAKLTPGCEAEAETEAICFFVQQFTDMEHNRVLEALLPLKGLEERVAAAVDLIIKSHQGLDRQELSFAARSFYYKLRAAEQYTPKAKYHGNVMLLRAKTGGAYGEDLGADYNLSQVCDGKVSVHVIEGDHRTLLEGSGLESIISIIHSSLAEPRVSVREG

CCc1ccc(S(=O)(=O)c2nnn3c2nc(NCCNC(C)=O)c2ccccc23)cc1
IC50 (Fatty acid synthase [1]): 3.5 µM (active) | IC50 (Fatty acid synthase [2]): 3.84 µM (active)

COc1ccc(/C=C2/Sc3ccc(C(=O)NCCN4CCCCCC4)cc3NC2=O)cc1
IC50 [3]: > 20 µM (inactive)

CC(=O)OCCN(C)c1cc(SC(C)C)c2nonc2c1[N+](=O)[O-]
EC50 (Protein RecA): > 380 µM (inactive) | IC50 (cells): 41.4 µM (active) | AC50 [4]: > 380 µM (inactive)

COC(=O)CCCCCN1C(=O)/C(=C\c2ccncc2)SC1=S
EC50 (Protein RecA): 17.7 µM (active) | IC50 (cells): 7.86 µM (active) | AC50 [4]: 12.2 µM (active)

O=C(COc1ccc([N+](=O)[O-])cc1)Nc1ccc2c(c1)CCC2
IC50 (Fatty acid synthase [1]): 6.78 µM (active) | IC50 (Fatty acid synthase [2]): 14.6 µM (active)

CCOc1ccc(Nc2nc(NCC3CCCO3)c3ccccc3n2)cc1 (stereo unspecified)
EC50 [5]: 2.32 µM (active) | IC50 [3]: > 20 µM (inactive) | EC50 [6]: 33.5 µM (inconclusive)

CN1CCN(CCCNC(=O)c2cn(C3CCCCC3)c(=O)c3c2c2ccccc2n3C)CC1
IC50 [3]: > 20 µM (inactive)

O=C1CC(N2CCCN(C3CC(=O)N(c4ccc(F)cc4)C3=O)CC2)C(=O)N1c1ccc(F)cc1 (stereo unspecified)
AC50 [7]: 4.32 µM (active)

O=C(NCc1ccccc1)/C(=C/c1cccc([N+](=O)[O-])c1)NC(=O)c1ccco1
IC50 (Fatty acid synthase [1]): 4.38 µM (active) | IC50 (Fatty acid synthase [2]): 4.49 µM (active)

Cc1ccc(N2C(=O)C3C4C=CC(CN=C(S)N5CCN(c6ccccn6)CC5)(O4)C3C2=O)cc1 (stereo unspecified)
AC50 [7]: 7.77 µM (active)

COc1ccccc1-c1sc2cc3c(cc2c1C#Cc1cncn1C)OCO3
AC50 [8]: 4.18 µM (active) | IC50 [3]: > 20 µM (inactive)

NC(=O)c1nsc(C(=O)N(c2ccccc2F)C(C(=O)NCc2ccc(F)cc2)c2ccc(O)cc2)c1N (stereo unspecified)
IC50 (H9c2): 29.8 µM (active) | IC50 [3]: > 20 µM (inactive)

COc1c(O)cccc1[C@@H](O)C1CCN(CCc2ccc(F)cc2)CC1
EC50 [9]: 13.8 µM (active) | EC50 [10]: 14.1 µM (inconclusive)

CCN(CC)C(=O)C1CCCN(c2ccc([N+](=O)[O-])cc2/C=N/NC(=O)c2cccc(O)c2)C1 (stereo unspecified)
IC50 (Fatty acid synthase [1]): 1.57 µM (active) | IC50 (Fatty acid synthase [2]): 1.93 µM (active)

COc1ccc2[nH]c(C(=O)N3CCC(CO)(Cc4cccc(C(F)(F)F)c4)CC3)c(C)c2c1
CC50 (Vero): > 25 µM (active)

C/C(=N\Nc1ncc(Cl)cc1Cl)c1ccc(OC(F)F)cc1
IC50 (Fatty acid synthase [1]): 14.2 µM (active) | IC50 (Fatty acid synthase [2]): 16.1 µM (active)

Cc1ccc(C(=O)CSc2nc3c(=O)n(C)c(=O)n(C)c3[nH]2)cc1
EC50 [9]: > 300 µM (not active) | EC50 [10]: > 300 µM (not active)

Cc1cccc(C(=O)Oc2ccc(/C=N/NC(=O)Cc3ccc([N+](=O)[O-])cc3)cc2)c1
IC50 [3]: > 20 µM (inactive)

COc1cc(OC)c(C2=NOC(C(=O)N3CCc4ccccc4C3)C2)cc1Cl (stereo unspecified)
IC50 (Fatty acid synthase [1]): 2.28 µM (active) | IC50 (Fatty acid synthase [2]): 3.02 µM (active)

COc1ccc(C2=NOC(COC(=O)c3ccc4ccccc4n3)C2)cc1 (stereo unspecified)
EC50 [11]: > 120 µM (not active) | EC50 [12]: 17.2 µM (active) | IC50 (cells): 9.07 µM (active) | EC50 (H4): 4.71 µM (active)

CCc1ccc(C(=O)NNC(=O)c2ccc(=O)n(C)n2)cc1
EC50 [9]: > 300 µM (not active) | EC50 [10]: 6.42 µM (active)

CC(=O)N1CCN(S(=O)(=O)c2cccc(C(=O)OCc3ccc(C(C)(C)C)cc3)c2)CC1
IC50 (Fatty acid synthase [1]): 0.205 µM (active) | IC50 (Fatty acid synthase [2]): 0.376 µM (active)

O=C(O)CCC(=O)NNc1nc(-c2ccccc2)c2cc(Cl)ccc2n1
EC50 [9]: > 300 µM (not active) | EC50 [10]: 9.18 µM (active)

Cc1ccccc1C(CC(=O)c1cccs1)C(C#N)C#N (stereo unspecified)
EC50 (Protein RecA): 1.17 µM (active) | CC50 (Vero): 17 µM (active) | AC50 [4]: > 380 µM (inconclusive)

O=C(N/N=C/c1ccc(-c2cccc([N+](=O)[O-])c2)o1)c1ccc([N+](=O)[O-])cc1
EC50 [9]: > 300 µM (not active) | IC50 (H9c2): > 79 µM (inactive) | EC50 [10]: > 300 µM (not active)
